Experimental findings from patent publication US7605156B2, “Methods for the use of inhibitors of cytosolic phospholipase A2” (Wyeth, priority 2001, dated 2009) are described below.

In one assay the test system is B6 mice. Put plainly: Experimental autoimmune encephalomyelitis (EAE), animal model of multiple sclerosis. In kind it is in vivo. The following applies: orally, 100 mg/kg, twice/day. As to the method: Six groups of B6 mice were immunized with MOG/CFA and injected with pertussis toxin to induce experimental autoimmune encephalomyelitis (EAE), an animal model of Multiple sclerosis. […] Another three groups of mice were treated with vehicle, Compound A or Compound B starting on the day of EAE onset (day 15) (orally, 100 mg/kg, twice/day). […] The results are shown in FIG. 1, wherein mean clinical score is a mean of clinical evaluation of each animal for that particular day. Animals are scored as follows: • 0 no clinical signs of EAE (no paralysis) • 1—paralysis of tail • 2—paralysis of tail and partial hind leg paralysis • 3—paralysis of tail And complete hind leg paralysis • 4—paralysis of tail, complete hind leg paralysis and a partial front leg paralysis • 5—moribund animal (all four limbs paralyzed, lack of responsiveness, these mice were immediately euthanized).

Assay [1] concerns Primary cerebellar granule neurons. Description: Oxygen-glucose deprivation (OGD) in cultured neurons. In kind it is cell-based, rat. The note with it: various concentrations, added 60 minutes before OGD; 2 hours OGD, read 24 hours later. How it is done: Primary cerebellar granule neurons were isolated from P5-8 rat pups. Briefly, cerebelli were collected and pooled in ice-cold phosphate buffer saline (PBS) without Ca^2+ and Mg^2+. The tissue was finely chopped and transferred to an enzymatic dissociation media containing 20 IU/ml papain in Earle's balanced salt solution (Worthington Biochemical, Freehold, N.J.) and incubated for 30 minutes at 37° C. After enzymatic dissociation, the papain solution was aspirated and the tissue mechanically triturated with a fire-polished Pasteur pipette in complete media [Neurobasal Medium with B-27 supplement (Gibco, Grand Island, N.Y.), penicillin/streptomycin, aphidicolin, glutamate, potassium chloride] containing 2,000 IU/ml DNase and 10 mg/ml ovomucoid protease inhibitor. Single-cell suspensions in complete media were plated on pre-coated poly-L-ornithine/laminin 24-well plates (Becton-Dickinson, Bedford, Mass.) at a density of 5.0×10^5 cells/well. Cells were maintained for two weeks prior to experimentation.
Cultures were treated with Compound A at various concentrations, 60 minutes before OGD. Media was removed and replaced with deoxygenated buffer in an anaerobic chamber (80% nitrogen, 10% hydrogen, 10% carbon dioxide gas mixture). […] Cell death was determined by measuring lactate dehydrogenase release into the media 24 hours later (Roche Biochemicals). […]

Assay [2] deals with Adult male Wistar rats. Put plainly: Transient middle cerebral artery occlusion (tMCAO). In kind it is in vivo. How it is done:
Adult male Wistar rats (Charles River, Wilmington, Mass.) 290-310 g were anesthetized with 3% isoflurane in 70% nitrous oxide and 30% oxygen through a nose cone. Temperature was maintained at 37° C. throughout the surgery using a heating lamp. Transient MCAO was induced for 90 min using the intraluminal suture method (see Longa, E. L. et al., 1989 Stroke 20:294-297). Briefly, an 18 mm length of 4-0 monofilament nylon suture coated with 0.1% poly-L-lysine (Belayev, L. et al, 1996 Stroke 27:1616-1623) and a flame-rounded tip was inserted into the external carotid artery and advanced through the internal carotid to occlude the origin of the middle cerebral artery (MCAO). Ninety minutes later the rats were re-anesthetized and the suture was withdrawn. Rats were sacrificed at 72 hrs post-MCAO.
Behavioral score: Animals are tested for motor deficits using a modified Bederson score. Briefly, animals are tested for flexion of the contralateral forelimb, twisting of the torso, decreased resistance to lateral push, circling to the contralateral side when holding the tail, and spontaneous circling. Each animal is scored 1 point for each behavior detected for a total of 5 points. Each animal is score at 90 min, just prior to reperfusion, at 24 hrs, 48 hrs and 72 hrs following MCAO.
Body weight is taken prior to MCAO surgery for baseline and 24 hrs, 48 hrs and 72 hrs after MCAO.
(§1) After sacrifice, the brains are extracted and placed in a rat brain matrix and 2 mm coronal slabs are taken from 4 mm caudal to the frontal pole and extending to the hindbrain. Sections are immersed in the active mitochondrial stain TTC at 37° C. for 10 min to delineate the lesion. Digitized sections are collected on the MCID image analysis system (Imaging Research, Inc. Ontario, Canada), area measurements are determined and a total lesion volume is calculated (area×distance in mm).

The test system of assay [3] is Adult male Wistar rats. Description: Permanent middle cerebral artery occlusion (pMCAO). It counts as in vivo. The following applies: dosed four times; 72 hours post ischemia. As to the method: Adult male Wistar rats (Charles River, Wilmington, Mass.) 270-300 g were anesthetized with 3% isoflurane in 70% nitrous oxide and 30% oxygen through a nose cone. Temperature was maintained at 37° C. throughout the surgery using a heating lamp. Permanent occlusion of MCAO was induced by electrocauterization of the distal portion of the MCA (via a craniotomy) with a 120 min ligation of both carotid arteries to interrupt collateral circulation (see Chen, S. T., et al, 1986 Stroke 17:738-743). Rats were sacrificed 72 hours post ischemia for measurement of infarct volume.
as §1

Assay [4] has as its system Primary dopaminergic neurons. Put plainly: MPP+ exposure in dopaminergic neurons (3H-dopamine uptake). In kind it is cell-based, rat. The following applies: 10 μM MPP+ for 60 minutes, read 24 hours later. How it is done:
Primary dopaminergic neurons were isolated from E15 rat embryos as described in Pong K., et al., (1997) J. Neurochem. 69 986-994. Briefly, the ventral mesencephalon was isolated and tissue was pooled in ice-cold phosphate buffer saline (PBS) without Ca^2+ and Mg^2+. The tissue was transferred to an enzymatic dissociation media containing 20 IU/ml papain in Earle's balanced salt solution (Worthington Biochemical, Freehold, N.J.) and incubated for 30 minutes at 37° C. After enzymatic dissociation, the papain solution was aspirated and the tissue mechanically triturated with a fire-polished Pasteur pipette in complete media [Neurobasal Medium with B-27 supplement (Gibco, Grand Island, N.Y.), penicillin/streptomycin, aphidicolin, glutamate] containing 2,000 IU/ml DNase and 10 mg/ml ovomucoid protease inhibitor. Single-cell suspensions in complete media were plated on pre-coated poly-L-ornithine/laminin 24-well plates (Becton-Dickinson, Bedford, Mass.) at a density of 5.0×10^5 cells/well. […]
Cultures were treated with various concentrations of Compound A and GDNF (glial-cell line derived neurotrophic factor, a positive control) hours before exposure to the neurotoxin MPP^+, the toxic metabolite of MPTP. […] Dopaminergic neuron viability was determined 24 hours later by measuring ^3H-dopamine uptake as described in Pong et al., 1997, supra.

Setting [5] is: 10 mg/kg and 30 mg/kg four times.

Take `Cc1cccc(C)c1CS(=O)(=O)NCCc1c(CCCc2ccc(C(=O)O)cc2)c2cc(Cl)ccc2n1C(c1ccccc1)c1ccccc1` [Example 52, 4-{3-[1-benzhydryl-5-chloro-2-(2-{[(2,6-dimethylbenzyl)-sulfonyl]amino}ethyl)-1H-indol-3-yl]propyl}benzoic acid]: the “EAE clinical score: prevention of EAE” value in the assay with B6 mice (from the day of immunization) was “prevent EAE”. In addition, the “EAE clinical score: clinical severity of EAE” value in the assay on B6 mice (starting on the day of EAE onset (day 15)) was “reduce clinical severity of EAE”. Also, the “OGD-induced cell death (lactate dehydrogenase release)” value in assay [1] is listed as “effective in protecting cultured neurons from OGD-induced cell death”. The “behavioral deficits (modified Bederson score)” value in the assay on Adult male Wistar rats [2] (setting [5]) is on record as “effectively reduced behavioral deficits”. Besides, in the assay on Adult male Wistar rats [2] (setting [5]), the “weight loss following MCAO” value is “reduced weight loss”. The infarct volume entry in the assay with Adult male Wistar rats [2] (10 mg/kg or 30 mg/kg four times (90 min, […], 24 hr, 48 hr post occlusion)) is on record as “significant level of neuroprotection”; with Adult male Wistar rats [3], “significantly reduces infarct volume”. In the assay on Adult male Wistar rats [2] (30 mg/kg 3 times, first dose 4 or 6 hrs post occlusion, measuring infarct volume and neurological deficits), the “therapeutically relevant window of opportunity” value is given as “at least 6 hrs”. This compound came in with a significant treatment window in the assay with Adult male Wistar rats [2] (30 mg/kg 3 times, first dose 4 or 6 hrs post occlusion, measuring weight loss) of 4 h. The “dopaminergic neuron viability (3H-dopamine uptake)” value in assay [4] was “effective to protect dopaminergic neuron viability against MPP^+”.
